Among the test systems are ACHN renal; LOX IMVI melanoma; PC-3 prostate; SK-MEL-5 melanoma; SK-OV-3 ovarian; EKVX NSCLC; MOLT-4 leukemia; RXF 393 renal; RPMI-8226 leukemia; 786-0 renal.
Common to all, as to assay: NCI anticancer screen, dose series, 48 h

For eight compounds, GI50 and TGI results are on record in PubChem BioAssay (NCI).

Several values for one entry are separate records, joined by “and”; a condition that tells them apart may be missing. Equal entries are not always repeated.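 1) Cells in 96-well plates. 2) Compound, 48 h, 5 concentrations. 3) Linear interpolation between surrounding doses. 4) Unreached endpoint = highest concentration. GI50 = concentration required for 50% inhibition of growth. At the TGI there is no net growth.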 Where only a bound is given, the exact number is not on record here.

Take `Nc1c2ccccc2nc2ccccc12`: the GI50 is 0.669 µM and 1.89 µM in the assay with ACHN renal; 1.77 µM and 1.69 µM with LOX IMVI melanoma; 2.24 µM and 3.13 µM in the assay with PC-3 prostate; 1.62 µM and 2.12 µM with SK-MEL-5 melanoma; 2.18 µM and 3.22 µM in the assay with SK-OV-3 ovarian; 1.78 µM and 3.46 µM in the assay with EKVX NSCLC. The GI50 is 1.68 µM and 2.21 µM with MOLT-4 leukemia; 1.1 µM and 2.31 µM in the assay on RXF 393 renal; 3.26 µM and 1.48 µM in the assay on RPMI-8226 leukemia; 2.61 µM and 3.64 µM in the assay on 786-0 renal. The TGI was 8.61 µM and 7.19 µM in the assay on ACHN renal; 5.12 µM and 3.5 µM in the assay on LOX IMVI melanoma; 9.38 µM and 15.9 µM with PC-3 prostate; 2.99 µM and 4.46 µM in the assay with SK-MEL-5 melanoma; 9.21 µM and 22 µM in the assay with SK-OV-3 ovarian; 11.1 µM in the assay with MOLT-4 leukemia. The TGI with RXF 393 renal is 2.77 µM and 6.57 µM; with RPMI-8226 leukemia, 18.6 µM and 5.94 µM; with 786-0 renal it was 11.4 µM and 14.7 µM.
Consider `C=C1C(=O)O[C@H]2[C@H]1CC/C(COC(=O)NCc1ccc(Cn3c(=O)sn(CCCI)c3=O)cc1)=C\CC[C@@]1(C)O[C@@H]21`, for which the GI50 in the assay with ACHN renal was 1.7 µM; in the assay on LOX IMVI melanoma, 1.4 µM; in the assay on PC-3 prostate, 1.94 µM; in the assay on SK-MEL-5 melanoma it was 1.91 µM; in the assay on SK-OV-3 ovarian, 13.6 µM; in the assay on EKVX NSCLC, 2.09 µM. The GI50 is 0.294 µM in the assay on MOLT-4 leukemia, 1.52 µM with RXF 393 renal, 0.899 µM in the assay on RPMI-8226 leukemia and 1.68 µM in the assay on 786-0 renal. The TGI in the assay with ACHN renal came to 3.19 µM; in the assay on LOX IMVI melanoma, 2.81 µM; in the assay with PC-3 prostate it was 4.4 µM; in the assay on SK-MEL-5 melanoma, 3.55 µM; in the assay on SK-OV-3 ovarian, 28.3 µM; in the assay on EKVX NSCLC, 6.77 µM. Also, the TGI was 3.19 µM with MOLT-4 leukemia, 2.95 µM with RXF 393 renal, 3.57 µM in the assay on RPMI-8226 leukemia and 3.71 µM in the assay on 786-0 renal.
Turning to `Nc1nc(N)c2nc(CNc3ccc(C(=O)NC(CCC(=O)O)C(=O)O)cc3)cnc2n1` (stereo not given), the GI50 was less than 0.01 µM in the assay on ACHN renal; less than 0.01 µM in the assay on LOX IMVI melanoma; less than 0.01 µM with PC-3 prostate; 0.0585 µM and 0.0309 µM in the assay with SK-MEL-5 melanoma; 0.0755 µM and < 0.01 µM in the assay on SK-OV-3 ovarian; 4.69 µM with EKVX NSCLC. Further, the GI50 in the assay with MOLT-4 leukemia was 0.0375 µM and < 0.0131 µM; in the assay on RPMI-8226 leukemia it was 0.0519 µM and 0.0313 µM; in the assay on 786-0 renal, less than 0.01 µM. The TGI in the assay on ACHN renal, in the assay with LOX IMVI melanoma, with PC-3 prostate, in the assay with SK-MEL-5 melanoma, with SK-OV-3 ovarian and with EKVX NSCLC was greater than 100 µM each time. Further, the TGI in the assay on MOLT-4 leukemia, in the assay with RXF 393 renal, in the assay on RPMI-8226 leukemia and with 786-0 renal was greater than 100 µM in each case.
With `CN1CC[C@H](N(C)C(=O)N2CC(c3cc(F)ccc3F)=C[C@@]2(CO)c2ccccc2)[C@H](F)C1`, the GI50 with ACHN renal is 0.0373 µM and 0.0195 µM; in the assay on LOX IMVI melanoma it was 0.0415 µM; in the assay with PC-3 prostate, 0.0409 µM; with SK-MEL-5 melanoma it was 0.00471 µM; in the assay on SK-OV-3 ovarian it was 0.00588 µM; in the assay on MOLT-4 leukemia it was 0.0377 µM. The values for the GI50 in the assay on RXF 393 renal, with RPMI-8226 leukemia and with 786-0 renal were 0.0052 µM, 0.0294 µM and 0.0072 µM, respectively. In addition, the TGI with ACHN renal was greater than 100 µM; in the assay on LOX IMVI melanoma, greater than 100 µM; in the assay on PC-3 prostate it was greater than 100 µM; with SK-MEL-5 melanoma, 14.1 µM; in the assay on SK-OV-3 ovarian, greater than 100 µM; in the assay with EKVX NSCLC it was greater than 100 µM. The TGI in the assay on MOLT-4 leukemia was greater than 100 µM; with RXF 393 renal it was 5.13 µM; in the assay with RPMI-8226 leukemia it was 40.8 µM; in the assay with 786-0 renal, greater than 100 µM.
In the case of `OC1(c2ccccc2)c2ccccc2N(c2ccccc2)c2ccc(Cl)cc21` (stereo not given), the GI50 is 0.367 µM in the assay on ACHN renal; 0.179 µM in the assay on LOX IMVI melanoma; 0.303 µM in the assay with PC-3 prostate; 0.186 µM in the assay on SK-MEL-5 melanoma; 0.608 µM in the assay with SK-OV-3 ovarian; 0.286 µM with EKVX NSCLC. Further, the GI50 in the assay with MOLT-4 leukemia was 0.294 µM; in the assay with RXF 393 renal, 0.185 µM; with RPMI-8226 leukemia, 0.216 µM; with 786-0 renal it was 0.253 µM. For the same compound, the TGI turned out to be 1.37 µM with ACHN renal; 0.348 µM in the assay on LOX IMVI melanoma; 1.23 µM in the assay on PC-3 prostate; 0.432 µM in the assay on SK-MEL-5 melanoma; 1.39 µM in the assay with SK-OV-3 ovarian; 1.25 µM in the assay on EKVX NSCLC. Further, the TGI in the assay with MOLT-4 leukemia amounted to 1.25 µM; in the assay on RXF 393 renal, 0.472 µM; with RPMI-8226 leukemia, 0.862 µM; with 786-0 renal, 0.68 µM.
As for `Cc1ccc(CNc2ccc(Cl)cc2NCc2ccc(C)c(O)c2)cc1O`, the GI50 is 6.19 µM with ACHN renal; 6.93 µM with LOX IMVI melanoma; 6.33 µM in the assay with PC-3 prostate; 8.24 µM with SK-OV-3 ovarian; 8.14 µM in the assay with EKVX NSCLC; 3.34 µM in the assay with MOLT-4 leukemia. For the same compound, the GI50 with RXF 393 renal is 7.5 µM; in the assay with RPMI-8226 leukemia, 6.75 µM; with 786-0 renal, 8.27 µM. The TGI came out at 12.6 µM in the assay on ACHN renal; 13.5 µM with LOX IMVI melanoma; 13.3 µM with PC-3 prostate; 15.2 µM with SK-OV-3 ovarian; 15.4 µM in the assay on EKVX NSCLC; 14.7 µM with MOLT-4 leukemia. Moreover, the results for the TGI in the assay with RXF 393 renal, in the assay on RPMI-8226 leukemia and in the assay on 786-0 renal were 14.5 µM, 21.9 µM and 15.4 µM, respectively.
For the compound `CC/C(=C\c1ccc(N(C)C)cc1)c1ccncc1`, the GI50 was 5.87 µM in the assay with ACHN renal; 4.05 µM with LOX IMVI melanoma; 10.3 µM in the assay with PC-3 prostate; 3.43 µM in the assay on SK-MEL-5 melanoma; 7.87 µM in the assay with SK-OV-3 ovarian; 3.29 µM in the assay on EKVX NSCLC. Also, the GI50 in the assay on MOLT-4 leukemia was 5.09 µM; with RXF 393 renal, 4.25 µM; with RPMI-8226 leukemia it was 5.13 µM; in the assay on 786-0 renal it was 6.31 µM. Further, the TGI was greater than 100 µM in the assay with ACHN renal; greater than 100 µM in the assay on LOX IMVI melanoma; greater than 100 µM in the assay with PC-3 prostate; 16.4 µM in the assay with SK-MEL-5 melanoma; 53.3 µM with SK-OV-3 ovarian; greater than 100 µM in the assay with EKVX NSCLC. For the same compound, the TGI in the assay on MOLT-4 leukemia was greater than 100 µM; in the assay on RXF 393 renal it was 20.8 µM; in the assay with RPMI-8226 leukemia it was 55.2 µM; with 786-0 renal, 46.4 µM.
`COc1ccc(-c2cc(-c3ccc(Cl)cc3)c(C#N)c(=O)n2CCCCCC(=O)Nc2ccccc2N)cc1`: the GI50 is 4.18 µM in the assay on ACHN renal; 1.64 µM with LOX IMVI melanoma; 3.05 µM in the assay on PC-3 prostate; 1.93 µM in the assay on SK-MEL-5 melanoma; 5.36 µM in the assay with SK-OV-3 ovarian; 3.44 µM in the assay with EKVX NSCLC. The GI50 in the assay on MOLT-4 leukemia is 5.16 µM; in the assay on RXF 393 renal it was 1.77 µM; in the assay with RPMI-8226 leukemia, 1.43 µM; in the assay with 786-0 renal, 4.49 µM. The TGI in the assay on ACHN renal was greater than 100 µM; with LOX IMVI melanoma it was 3.45 µM; in the assay on PC-3 prostate, 31 µM; in the assay on SK-MEL-5 melanoma, 3.73 µM; with SK-OV-3 ovarian, 38.4 µM; with EKVX NSCLC, 61.1 µM. The TGI is greater than 100 µM in the assay on MOLT-4 leukemia, 5.68 µM in the assay on RXF 393 renal, 7.28 µM in the assay on RPMI-8226 leukemia and greater than 100 µM with 786-0 renal.
